PubChem BioAssay (NCI)
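Growth conditions: 96-well plates. Treatment: test compound, 48 hours, 5 concentrations. Analysis: linear interpolation between bracketing concentrations; unreached endpoints set to highest concentration. TGI is the concentration that stops growth completely.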

Legend:
Assay in all cases: NCI-60 cell line screen, 48 h
SF-295 CNS = system: SF-295 CNS
SN12C renal = system: SN12C renal
U251 CNS = system: U251 CNS
UACC-257 melanoma = system: UACC-257 melanoma
LOX IMVI melanoma = system: LOX IMVI melanoma
A498 renal = system: A498 renal
OVCAR-4 ovarian = system: OVCAR-4 ovarian
T-47D breast = system: T-47D breast
MDA-MB-435 = system: MDA-MB-435

NCCCN1c2ccccc2Sc2ccc(Cl)cc21
TGI (SF-295 CNS): > 10 µM | TGI (SN12C renal): > 10 µM | TGI (U251 CNS): > 10 µM | TGI (UACC-257 melanoma): > 10 µM | TGI (LOX IMVI melanoma): 7.31 µM | TGI (A498 renal): > 10 µM | TGI (OVCAR-4 ovarian): > 10 µM | TGI (T-47D breast): > 9.08 µM | TGI (MDA-MB-435): 4.01 µM

Cc1cc(/N=C/c2ccc(N(C)C)cc2)n(-c2ccccc2)n1
TGI (SF-295 CNS): > 100 µM | TGI (SN12C renal): > 100 µM | TGI (U251 CNS): > 100 µM | TGI (UACC-257 melanoma): > 100 µM | TGI (LOX IMVI melanoma): > 100 µM | TGI (A498 renal): 84.5 µM | TGI (OVCAR-4 ovarian): > 100 µM | TGI (T-47D breast): 89.5 µM | TGI (MDA-MB-435): > 100 µM

C=C1C(=O)CC2C1CC(=O)/C(C)=C/CCC(C)(O)C2O (stereo unspecified)
TGI (SF-295 CNS): 47.8 µM | TGI (SN12C renal): 5.32 µM | TGI (U251 CNS): 40.6 µM | TGI (UACC-257 melanoma): 12.6 µM | TGI (LOX IMVI melanoma): 11.9 µM | TGI (A498 renal): 48.4 µM | TGI (OVCAR-4 ovarian): 29.1 µM | TGI (T-47D breast): 3.96 µM | TGI (MDA-MB-435): 20.4 µM

NS(=O)(=O)c1ccc(NC(=S)/N=C/C2=C(O)c3ccccc3C2=O)cc1
TGI (SF-295 CNS): > 100 µM | TGI (SN12C renal): > 100 µM | TGI (U251 CNS): > 100 µM | TGI (UACC-257 melanoma): > 100 µM | TGI (LOX IMVI melanoma): > 100 µM | TGI (A498 renal): > 100 µM | TGI (OVCAR-4 ovarian): > 100 µM | TGI (T-47D breast): > 100 µM | TGI (MDA-MB-435): > 100 µM

Clc1ccc(-c2nnc3sc4nc5ccccc5c-4nn23)c(Cl)c1
TGI (SF-295 CNS): > 100 µM | TGI (SN12C renal): > 100 µM | TGI (U251 CNS): > 100 µM | TGI (UACC-257 melanoma): > 100 µM | TGI (LOX IMVI melanoma): > 100 µM | TGI (A498 renal): > 100 µM | TGI (OVCAR-4 ovarian): > 100 µM | TGI (T-47D breast): > 100 µM | TGI (MDA-MB-435): > 100 µM

O=[N+]([O-])C(=C(Nc1ccccc1)Nc1ccccc1)C(Cl)=C(Cl)Cl
TGI (SF-295 CNS): 36.4 µM | TGI (SN12C renal): 35.5 µM | TGI (U251 CNS): 35.3 µM | TGI (UACC-257 melanoma): 30.7 µM | TGI (LOX IMVI melanoma): 25.1 µM | TGI (A498 renal): 26.2 µM | TGI (OVCAR-4 ovarian): 24.8 µM | TGI (T-47D breast): 50.9 µM | TGI (MDA-MB-435): 28.7 µM

COc1ccc(N2C(=O)CC(=O)N(NC(=O)C(C)Oc3ccccc3C)C2=S)cc1 (stereo unspecified)
TGI (SF-295 CNS): > 100 µM | TGI (SN12C renal): > 100 µM | TGI (U251 CNS): > 100 µM | TGI (UACC-257 melanoma): > 100 µM | TGI (LOX IMVI melanoma): > 100 µM | TGI (A498 renal): > 100 µM | TGI (OVCAR-4 ovarian): > 100 µM | TGI (T-47D breast): > 100 µM | TGI (MDA-MB-435): > 100 µM

OC[C@H]1O[C@@H]2O[C@@](COCc3ccccc3)([C@H](OCc3ccccc3)[C@H]2O)[C@@H]1OCc1ccccc1
TGI (SF-295 CNS): 28.8 µM | TGI (SN12C renal): 29.2 µM | TGI (U251 CNS): 29.5 µM | TGI (UACC-257 melanoma): 32.2 µM | TGI (LOX IMVI melanoma): 32.2 µM | TGI (A498 renal): 32.1 µM | TGI (OVCAR-4 ovarian): 10.8 µM | TGI (T-47D breast): 33 µM | TGI (MDA-MB-435): 31.8 µM

CC1=CCC([C@@](C)(O)CCCC(C)(C)N=C=S)CC1 (stereo partly specified)
TGI (SF-295 CNS): 36.3 µM | TGI (SN12C renal): 35.6 µM | TGI (U251 CNS): 32.9 µM | TGI (UACC-257 melanoma): 35 µM | TGI (LOX IMVI melanoma): 29.6 µM | TGI (A498 renal): 28.7 µM | TGI (OVCAR-4 ovarian): 30.9 µM | TGI (T-47D breast): 44.2 µM | TGI (MDA-MB-435): 31 µM

C/C(C[n+]1ccccc1)=N\N=C(N)N
TGI (SF-295 CNS): > 100 µM | TGI (SN12C renal): > 100 µM | TGI (U251 CNS): > 100 µM | TGI (UACC-257 melanoma): > 100 µM | TGI (LOX IMVI melanoma): > 100 µM | TGI (A498 renal): > 100 µM | TGI (OVCAR-4 ovarian): > 100 µM | TGI (T-47D breast): > 100 µM | TGI (MDA-MB-435): > 100 µM

O=C1OC(C2Cc3ccc4ccccc4c3C2=O)c2ccccc21 (stereo unspecified)
TGI (SF-295 CNS): > 100 µM | TGI (SN12C renal): > 100 µM | TGI (U251 CNS): > 100 µM | TGI (UACC-257 melanoma): > 100 µM | TGI (LOX IMVI melanoma): > 100 µM | TGI (A498 renal): > 100 µM | TGI (OVCAR-4 ovarian): 65.3 µM | TGI (T-47D breast): > 100 µM | TGI (MDA-MB-435): > 100 µM

O=C(O)CCNc1ncnc2nc[nH]c12
TGI (SF-295 CNS): > 100 µM | TGI (SN12C renal): > 100 µM | TGI (U251 CNS): > 100 µM | TGI (UACC-257 melanoma): > 100 µM | TGI (LOX IMVI melanoma): > 100 µM | TGI (A498 renal): > 100 µM | TGI (OVCAR-4 ovarian): > 100 µM | TGI (T-47D breast): > 100 µM | TGI (MDA-MB-435): > 100 µM

CCNC(=S)NNC(=O)C12CC3CC(CC(C3)C1)C2
TGI (SF-295 CNS): > 100 µM | TGI (SN12C renal): > 100 µM | TGI (U251 CNS): > 100 µM | TGI (UACC-257 melanoma): > 100 µM | TGI (LOX IMVI melanoma): > 100 µM | TGI (A498 renal): > 100 µM | TGI (OVCAR-4 ovarian): > 100 µM | TGI (T-47D breast): > 100 µM | TGI (MDA-MB-435): > 100 µM

CC(C)SC(=S)Sc1c(Cl)c(Cl)nc(Cl)c1Cl
TGI (SF-295 CNS): 30.5 µM | TGI (SN12C renal): 27.6 µM | TGI (U251 CNS): 14 µM | TGI (UACC-257 melanoma): 9.57 µM | TGI (LOX IMVI melanoma): 6.68 µM | TGI (A498 renal): 31.5 µM | TGI (OVCAR-4 ovarian): 28.4 µM | TGI (T-47D breast): 4.39 µM | TGI (MDA-MB-435): 19.6 µM

O=S(=O)(O)C(CO)c1ccccc1 (stereo unspecified) (tested in a mixture with another compound)
TGI (SF-295 CNS): > 100 µM | TGI (SN12C renal): > 100 µM | TGI (U251 CNS): > 100 µM | TGI (UACC-257 melanoma): > 100 µM | TGI (LOX IMVI melanoma): > 100 µM | TGI (A498 renal): > 100 µM | TGI (OVCAR-4 ovarian): > 100 µM | TGI (T-47D breast): > 100 µM | TGI (MDA-MB-435): > 100 µM

Oc1cc(Cl)cc2cccnc12
TGI (SF-295 CNS): 15.9 µM | TGI (SN12C renal): > 100 µM | TGI (U251 CNS): > 47.9 µM | TGI (UACC-257 melanoma): > 29.9 µM | TGI (LOX IMVI melanoma): 28 µM | TGI (A498 renal): 59.6 µM | TGI (OVCAR-4 ovarian): > 100 µM | TGI (T-47D breast): 26.2 µM | TGI (MDA-MB-435): > 77.6 µM

N[C@@H](Cc1ccccc1)C(=O)N1CCC[C@@H]1P(=O)(Oc1ccccc1)Oc1ccccc1
TGI (SF-295 CNS): > 100 µM | TGI (SN12C renal): > 100 µM | TGI (U251 CNS): > 100 µM | TGI (UACC-257 melanoma): > 100 µM | TGI (LOX IMVI melanoma): > 100 µM | TGI (A498 renal): > 100 µM | TGI (OVCAR-4 ovarian): > 100 µM | TGI (T-47D breast): > 100 µM | TGI (MDA-MB-435): > 100 µM

Cc1cccc(C)c1NC(=O)C(Cc1c[nH]c2ccccc12)NC(=O)OCc1ccccc1 (stereo unspecified)
TGI (SF-295 CNS): 38.9 µM | TGI (SN12C renal): 80.7 µM | TGI (U251 CNS): 47.2 µM | TGI (UACC-257 melanoma): 34 µM | TGI (LOX IMVI melanoma): 53.8 µM | TGI (A498 renal): 69.8 µM | TGI (OVCAR-4 ovarian): 37.1 µM | TGI (T-47D breast): 61.2 µM | TGI (MDA-MB-435): 48.5 µM

O=C(O)CN1CCNCCN(CC(=O)O)CCN(CC(=O)O)CCNCC1
TGI (SF-295 CNS): > 100 µM | TGI (SN12C renal): > 100 µM | TGI (U251 CNS): > 100 µM | TGI (UACC-257 melanoma): > 100 µM | TGI (LOX IMVI melanoma): > 100 µM | TGI (A498 renal): > 100 µM | TGI (OVCAR-4 ovarian): > 100 µM | TGI (T-47D breast): > 100 µM | TGI (MDA-MB-435): > 100 µM
